Here are results for 2 compounds from US20080260807A1, “Water-Soluble Films Comprising Nicotine” (Bio Progress Technology Limited, priority 2005, published 2008).

For series [1] the following is noted: in water or alcohol; cited from earlier work.
For series [2] the following is noted: aqueous solution of hydroxyl ethyl cellulose, Pullulan, polyvinyl pyrollidone and propylene glycol alginate, cast to thin film. From the text: Alternatively, films of the present invention can be made by dissolving NBD in an aqueous solution of hydroxyl ethyl cellulose, Pullulan, polyvinyl pyrollidone (“PVP”), and propylene glycol alginate (“POGA”). This solution can then be cast to form thin films of the present invention. […] Films made according to the process, in addition to comprising embodiments of the present invention, can be used as the base water-soluble film to which the fluid comprising nicotine is applied. Further, or in the alternative, the aqueous solution thus described can comprise the fluid comprising nicotine for application to the base water-soluble film.

For `CN1CCCC1c1cccnc1` (centres unmarked) [Nicotine], in series [1], the Solubility result is reported as “Soluble in water”. Take `CN1CCCC1c1cccnc1.O.O.O=C(O)C(O)C(O)C(=O)O` (centres unmarked) [Nicotine Bitartrate Dihydrate, nicotine bitartrate dihydrate]: the “Crystallisation during formation of the film” value in series [2] is given as “does not crystallize”.
